In publication PMC8918016 (ACS infectious diseases, 2021):
Where two headings read alike, the source gives them in different places.

What was measured:
B. subtilis = B. subtilis growth inhibition assay; format: cell-based, Bacillus subtilis; conditions: read-out: Bs IC50
E. coli (K12) = assay: E. coli growth inhibition assay; format: cell-based, Escherichia coli; conditions: read-out: Ec IC50
[1] = for Rabbit 1 concentration in lung tissue / Rabbit 2 concentration in lung tissue: in vivo; for amount formed on a per-site basis in lung tissue: lung concentration divided by number of equivalent adamantyl sites
[2] = rats; cited from earlier work
[3] = dogs; cited from earlier work
human CYP2D6 = conditions: 30 min incubation with CYP2D6; cited from earlier work
human CYP2C19 = conditions: 30 min incubation with CYP2C19; cited from earlier work
[4] = calculated, Pipeline Pilot program; cited from earlier work
M. tuberculosis H37Rv = assay: M. tuberculosis growth inhibition assay; conditions: read-out: Mtb IC90; concentration that inhibits 90% of growth, OD600, 5 days; ± standard error
M. smegmatis = M. smegmatis growth inhibition assay; format: cell-based, Mycobacterium smegmatis; conditions: read-out: Ms IC50, OD600, 48 h, ± standard error
[5] = growth inhibition, OD600, 12 h, ± standard error

Row | Structure (SMILES) | IC50 (B. subtilis; Bacillus subtilis, 12 h) [µM] | IC50 (E. coli (K12); Escherichia coli, 12 h) [µM] | Rabbit 1 concentration in lung tissue ([1]; female, New Zealand White) | Rabbit 2 concentration in lung tissue ([1]; female, New Zealand White) | [14C-SQ109] half-life [2] [h] | [14C-SQ109] half-life [3] [h] | SQ109 remaining (human CYP2D6) [%] | SQ109 remaining (human CYP2C19) [%] | pKa (adamantylamine NH) [4] | pKa (geranylamine NH) [4] | IC90 (M. tuberculosis H37Rv) [µM] | IC50 (M. smegmatis) [µM] | IC50 (B. subtilis; [5]) [µM] | IC50 (E. coli (K12); [5]) [µM] | Rabbit 1 concentration in lung tissue [1] | Rabbit 2 concentration in lung tissue [1] | amount formed on a per-site basis in lung tissue [1]
1 | CC(C)=CCC/C(C)=C/CNCCNC1C2CC3CC(C2)CC1C3 (stereo not drawn) [Compound 1, SQ109] | 16 ± 0.14 | 15 ± 0.26 | 37000 (4600) ng/g | 45000 (21000) ng/g | > 5 | > 5 | 0.8 | 45 | 12.7 | 5.63 | 1 ± 0.05 |  |  |  |  |  | 
2 | CC(C)=CCC/C(C)=C/CNCCN [Compound 20, geranylethylenediamine] |  |  |  |  |  |  |  |  |  |  | > 25 | > 500 | > 500 | > 500 | 310(14) ng/g | 330 (54) ng/g | 
3 | C/C(=C\CC/C(C)=C/CNCCNC1C2CC3CC(C2)CC1C3)CO (stereo not drawn) [Compound 9, (2E,6E)-8-((2-(((1r,3r,5r,7r)-Adamantan-2-yl)amino)ethyl)-amino)-2,6-dimethylocta-2,6-dien-1-ol] |  |  |  |  |  |  |  |  |  |  | > 24 | 55 ± 1.4 | > 500 | 267 ± 4.3 | 720 (47) ng/g | 850 (190) ng/g | 
4 | ON=C1C2CC3CC(C2)CC1C3 [Compound 16, adamantan-2-one oxime] | > 500 | > 500 |  |  |  |  |  |  |  |  | > 25 |  |  |  | BLQ | BLQ | 
5 | CC(C)=CCC/C(C)=C/CNCCNC1[C@H]2C[C@@H]3C[C@H](C2)C(O)[C@H]1C3 (stereo partly drawn) [Compound 24, (1R,3S,5S,7R)-4-((2-(((E)-3,7-Dimethylocta-2,6-dien-1-yl)-amino)ethyl)amino)adamantan-2-ol] | 166 ± 0.5 | 158 ± 4.5 | 820 (170) ng/g | 2100 (680) ng/g |  |  |  |  |  |  | 6.2 ± 0.27 |  |  |  |  |  | ~ 1 μM
6 | NCCNC1C2CC3CC(C2)CC1C3 (stereo not drawn) [Compound 7, N′-adamantylethylenediamine] |  |  |  |  |  |  |  |  |  |  | > 25 | > 500 | > 500 | > 500 | 5500 (360) ng/g | 7700 (2200) ng/g | 
7 | C/C(=C\CNCCNC1C2CC3CC(C2)CC1C3)CCC(=O)C(C)C (stereo not drawn) [Compound 12, (E)-8-((2-(((1r,3r,5r,7r)-adamantan-2-yl)amino)-ethyl)amino)-2,6-dimethyloct-6-en-3-one] |  |  |  |  |  |  |  |  |  |  | 17 ± 4.5 | 22 ± 1.5 | 176 ± 5.1 | 57 ± 2.3 | 91 (20) ng/g | 220 (110) ng/g | 
8 | CC(C)=CCC/C(C)=C/CN [Compound 17, geranylamine] |  |  |  |  |  |  |  |  |  |  | > 25 | > 500 | > 500 | > 500 | BLQ | BLQ | 
9 | O=C1C2CC3CC(C2)CC1C3 [Compound 19, 2-adamantanone] | > 500 | > 500 |  |  |  |  |  |  |  |  | > 25 |  |  |  |  |  | 
10 | NC1C2CC3CC(C2)CC1C3 (stereo not drawn) [Compound 18, 2-aminoadamantane] | > 500 | > 500 | 170(49) ng/g | 270(27) ng/g |  |  |  |  |  |  | > 25 |  |  |  |  |  | 
11 | CC(C)=CCC/C(C)=C/C=NO [Compound 15a, geranial oxime] |  |  |  |  |  |  |  |  |  |  | > 25 | > 500 | > 500 | > 500 | BLQ | BLQ | 
12 | CC(C)=CCC/C(C)=C/C(=O)O [Compound 14, geranic acid] | > 500 | > 500 |  |  |  |  |  |  |  |  | > 25 |  |  |  | BLQ | BLQ | 
13 | CC(C)=CCC/C(C)=C/C=O [Compound 13, geranial] |  |  |  |  |  |  |  |  |  |  | > 25 | > 500 | > 500 | > 500 | BLQ | BLQ | 
14 | CC(C)=CCC/C(C)=C/CNCCNC1C2CC3CC1CC(C2)C3O (stereo not drawn) [Compound 23, (1r,3r,5r,7r)-6-((2-(((E)-3,7-Dimethylocta-2,6-dien-1-yl)-amino)ethyl)amino)adamantan-2-ol] |  |  |  |  |  |  |  |  |  |  | > 25 | 68 ± 2.5 | 184 ± 4.5 | 52 ± 2.5 | 1200 (210) ng/g | 3500 (1200) ng/g | 6.8 µM
